In article PMC2992812 (The Biochemical journal, 2010):
Each block holds one compound with its values, some of them ahead of it.

Experiments:
[1] = molecular target: β2AR (Homo sapiens, UniProt P07550); assay: Fixed-cell ELISA, PKA site; format: cell-based; conditions: 10 μM H89 pre-incubated 30 min and during 5 min with 1 μM isoprenaline
[2] = molecular target: T1, TRHR (Rattus norvegicus, UniProt Q01717); assay: Receptor internalization assay; format: cell-based; conditions: 100 nM TRH, after 1 h, HEK-293
T1 sequence (Q01717 1-412): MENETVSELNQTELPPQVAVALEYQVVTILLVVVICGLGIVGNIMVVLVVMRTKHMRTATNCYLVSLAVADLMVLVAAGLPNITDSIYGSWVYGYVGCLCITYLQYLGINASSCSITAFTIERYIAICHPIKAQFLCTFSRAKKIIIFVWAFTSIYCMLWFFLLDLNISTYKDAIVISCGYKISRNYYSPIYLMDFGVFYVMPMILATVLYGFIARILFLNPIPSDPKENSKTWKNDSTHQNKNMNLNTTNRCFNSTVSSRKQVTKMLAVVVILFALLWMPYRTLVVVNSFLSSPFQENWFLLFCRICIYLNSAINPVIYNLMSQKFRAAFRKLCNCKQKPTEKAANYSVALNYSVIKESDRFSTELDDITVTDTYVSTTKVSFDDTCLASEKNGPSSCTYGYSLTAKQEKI

[3] = molecular target: T1, TRHR; assay: Fixed-cell ELISA, GRK site phosphorylation/dephosphorylation of TRHR tail; format: cell-based; conditions: EC50 (GRK site phosphorylation)
[4] = molecular target: T2, TRHR–β2AR chimaera (Rattus norvegicus, UniProt Q01717); assay: Receptor internalization assay; format: cell-based, rat TRHR / human β2AR; conditions: 100 nM TRH, after 1 h, HEK-293
T2 sequence (Q01717 1-337): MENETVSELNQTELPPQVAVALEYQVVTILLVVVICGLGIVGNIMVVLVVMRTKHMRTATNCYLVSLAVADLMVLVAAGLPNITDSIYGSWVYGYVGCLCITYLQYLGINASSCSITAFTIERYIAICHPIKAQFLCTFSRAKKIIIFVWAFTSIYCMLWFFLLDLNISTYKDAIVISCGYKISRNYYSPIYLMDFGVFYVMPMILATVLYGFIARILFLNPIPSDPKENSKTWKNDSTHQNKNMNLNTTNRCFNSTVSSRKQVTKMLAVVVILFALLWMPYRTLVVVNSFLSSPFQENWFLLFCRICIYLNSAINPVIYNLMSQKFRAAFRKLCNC

[5] = test system: β2AR–TRHR chimaera; assay: Receptor internalization assay; format: cell-based, human β2AR / rat TRHR; conditions: stable HEK-293
[6] = molecular target: T2, TRHR–β2AR chimaera; assay: [methyl-3H]TRH binding to live cells; design: species or system rat TRHR / human β2AR; conditions: HEK-293, 90 min at 37°C, Scatchard analysis

Chain of β2AR (P07550 whole entry): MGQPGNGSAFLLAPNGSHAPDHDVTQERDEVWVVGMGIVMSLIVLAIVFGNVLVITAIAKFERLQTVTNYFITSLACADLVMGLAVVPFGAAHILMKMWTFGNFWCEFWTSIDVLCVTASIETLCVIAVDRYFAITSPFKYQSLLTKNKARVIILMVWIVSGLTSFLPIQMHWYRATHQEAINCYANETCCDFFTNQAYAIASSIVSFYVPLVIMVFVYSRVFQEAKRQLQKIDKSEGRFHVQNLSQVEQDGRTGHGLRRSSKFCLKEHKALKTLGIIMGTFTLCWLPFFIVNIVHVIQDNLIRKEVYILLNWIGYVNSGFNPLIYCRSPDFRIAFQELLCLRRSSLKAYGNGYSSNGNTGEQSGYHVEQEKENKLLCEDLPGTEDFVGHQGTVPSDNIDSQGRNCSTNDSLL

Compound: O=S(=O)(NCCNC/C=C/c1ccc(Br)cc1)c1cccc2cnccc12 [H89]
Inhibition of isoprenaline-stimulated PKA site phosphorylation [1]: 80%

Receptor internalized [2]: 60%
EC50 [3]: 8 nM
Receptor internalized [4]: 40%
Compound: NC(=O)[C@@H]1CCCN1C(=O)[C@H](Cc1cnc[nH]1)NC(=O)[C@@H]1CCC(=O)N1 [TRH, thyrotropin-releasing hormone]

Compound: CC(C)NCC(O)c1ccc(O)c(O)c1 (stereo not drawn) [isoprenaline]
More internalization at 1 μM than at 1 nM isoprenaline [5]: 2 fold

Affinity for [methyl-3H]TRH compared with wild-type TRHR [6]: reduced affinity
Compound: [methyl-3H]TRH
